Test results published in patent US20240360157A1, “TYK2 INHIBITORS” (BIOGEN MA INC., priority 2021, published 2024).
Structures can show the parent of a compound that is named as a salt.

What was measured:
Assay type in all cases: biochemical
[1] = molecular target: human TYK2 catalytic kinase (JH1) domain (Homo sapiens (Human), UniProt P29597); assay: ADP-Glo Kinase Assay, recombinant TYK2 catalytic kinase (JH1) domain; settings: recombinant JH1 domain 2 nM, 10 μM ATP, JAK3-974 peptide, mean, read-out: TYK2 biochem IC50 (nM) Mean
Experimental: (§1) Compounds of the disclosure were assessed for their ability to inhibit TYK2, JAK1, JAK2, and JAK3 activity. The inhibitory properties of the compounds of the disclosure described herein can be evidenced by testing in any one of the following protocols.
(§2) The kinase activity of recombinantly generated catalytic kinase (also known as JH1) domain of human JAK1, JAK2, JAK3 and TYK2 were evaluated in a plate-based assay using the ADP-Glo™ Kinase Assay platform. Specifically, 4 nM of recombinant JAK1 kinase domain is used to phosphorylate 50 μM of a JAK3-342 (sequence ALVDGYFRLTT) peptide in the presence of 35 μM ATP. Catalytic activities of recombinant JAK2, JAK3 and TYK2 kinase domain (0.2, 0.3 and 2 nM, respectively) are evaluated by the phosphorylation status of the JAK3-974 (50 μM; sequence LPLDKDYYVVR) peptide with the addition of ATP (15, 4 and 10 μM, respectively). The reactions proceed for 100 minutes and the catalytic activity is quantified by first depleting the unused ATP, converting the hydrolyzed ADP into ATP to generate luminescence in a luciferase reaction; which is the basis of the ADP-Glo platform. Compounds are tested at either 10 μM or 1 μM top concentration, 11 points of 3-fold dilution. The data is normalized and the percent activity versus log concentration of compound is fitted with a 4-parameter logistic model to generate a curve and an IC50 value.

[2] = molecular target: human JAK1 catalytic kinase (JH1) domain (Homo sapiens (Human), UniProt P23458); assay: ADP-Glo Kinase Assay, recombinant JAK1 catalytic kinase (JH1) domain; settings: recombinant JH1 domain 4 nM, 35 μM ATP, JAK3-342 peptide, mean, read-out: JAK1 biochem IC50 (nM) Mean
Experimental: as §1, §2

[3] = molecular target: human JAK2 catalytic kinase (JH1) domain (Homo sapiens (Human), UniProt O60674); assay: ADP-Glo Kinase Assay, recombinant JAK2 catalytic kinase (JH1) domain; settings: recombinant JH1 domain 0.2 nM, 15 μM ATP, JAK3-974 peptide, mean, read-out: JAK2 biochem IC50 (nM) Mean
Experimental: as §1, §2

[4] = molecular target: human JAK3 catalytic kinase (JH1) domain (Homo sapiens (Human), UniProt P52333); assay: ADP-Glo Kinase Assay, recombinant JAK3 catalytic kinase (JH1) domain; settings: recombinant JH1 domain 0.3 nM, 4 μM ATP, JAK3-974 peptide, mean, read-out: JAK3 biochem IC50 (nM) Mean
Experimental: as §1, §2

Chain of human JAK3 catalytic kinase (JH1) domain (P52333 822-1111): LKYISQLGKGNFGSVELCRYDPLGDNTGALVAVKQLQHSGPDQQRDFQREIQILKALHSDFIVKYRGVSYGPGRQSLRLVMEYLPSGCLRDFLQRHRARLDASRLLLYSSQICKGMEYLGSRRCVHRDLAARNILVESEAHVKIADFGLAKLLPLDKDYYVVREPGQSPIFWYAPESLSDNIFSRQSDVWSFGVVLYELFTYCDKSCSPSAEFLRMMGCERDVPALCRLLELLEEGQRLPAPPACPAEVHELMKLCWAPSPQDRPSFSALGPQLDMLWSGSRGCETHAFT
Chain of human TYK2 catalytic kinase (JH1) domain (P29597 897-1176): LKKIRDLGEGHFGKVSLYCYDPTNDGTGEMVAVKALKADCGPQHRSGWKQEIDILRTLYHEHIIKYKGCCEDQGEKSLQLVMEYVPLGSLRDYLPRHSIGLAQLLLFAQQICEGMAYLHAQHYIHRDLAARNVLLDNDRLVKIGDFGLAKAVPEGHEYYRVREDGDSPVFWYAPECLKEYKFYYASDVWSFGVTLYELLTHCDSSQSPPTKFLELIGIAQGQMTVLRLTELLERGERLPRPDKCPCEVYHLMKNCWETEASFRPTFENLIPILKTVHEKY
Chain of human JAK2 catalytic kinase (JH1) domain (O60674 849-1124): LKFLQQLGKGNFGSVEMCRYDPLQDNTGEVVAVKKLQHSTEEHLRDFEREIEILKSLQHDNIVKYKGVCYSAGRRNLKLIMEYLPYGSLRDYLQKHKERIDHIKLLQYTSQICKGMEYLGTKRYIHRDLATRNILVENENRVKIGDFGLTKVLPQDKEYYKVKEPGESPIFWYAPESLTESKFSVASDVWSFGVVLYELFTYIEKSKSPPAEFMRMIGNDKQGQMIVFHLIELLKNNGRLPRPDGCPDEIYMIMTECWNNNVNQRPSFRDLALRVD
Chain of human JAK1 catalytic kinase (JH1) domain (P23458 875-1153): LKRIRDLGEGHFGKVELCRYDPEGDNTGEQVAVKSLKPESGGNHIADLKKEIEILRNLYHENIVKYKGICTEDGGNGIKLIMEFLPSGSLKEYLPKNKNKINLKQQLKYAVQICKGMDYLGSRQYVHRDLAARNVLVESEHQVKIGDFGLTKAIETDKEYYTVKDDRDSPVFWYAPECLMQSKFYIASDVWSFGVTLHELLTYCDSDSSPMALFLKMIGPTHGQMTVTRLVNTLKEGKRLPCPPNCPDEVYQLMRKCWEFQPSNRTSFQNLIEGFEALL

Row | SMILES | IC50 [1] [nM] | IC50 [2] [nM] | IC50 [3] [nM] | IC50 [4] [nM]
1 | N#CCC(=O)N1C2CCC1CN(c1ncnn3cc(-c4cnn(C(F)F)c4)cc13)C2 [Example 44, 3-(3-(6-(1-(difluoromethyl)-1H-pyrazol-4-yl)pyrrolo[2,1-f][1,2,4]triazin-4-yl)-3,8-diazabicyclo[3.2.1]octan-8-yl)-3-oxopropanenitrile] | 236 | 395 | 4180 | 5390
2 | O=C(C1CCC1(F)F)N1C2CCC1CN(c1ncnn3cc(-c4cnn(C(F)F)c4)cc13)C2 (centres unmarked) [Example 11, (2,2-difluorocyclobutyl)(3-(6-(1-(difluoromethyl)-1H-pyrazol-4-yl)pyrrolo[2,1-f][1,2,4]triazin-4-yl)-3,8-diazabicyclo[3.2.1]octan-8-yl)methanone] | 506 | 1650 | 8370 | 6670
3 | Cn1cc(-c2cc3c(N4CC5CCC(C4)N5C(=O)[C@@H]4C[C@H]4F)ccnn3c2)ccc1=O [Example 172] | 2.6 | 32 | 54 | 595
4 | Cn1cc(-c2cc3c(N4CC5CCC(C4)N5C(=O)C4(C)CCC4)ncnn3c2)cn1 [Example 68, (3-(6-(1-methyl-1H-pyrazol-4-yl)pyrrolo[2,1-f][1,2,4]triazin-4-yl)-3,8-diazabicyclo[3.2.1]octan-8-yl)(1-methylcyclobutyl)methanone] | 696 | 8700 | 9180 | 8670
5 | Cn1cc(-c2cc3c(N4CC5CCC(C4)N5C(=O)[C@@H]4C[C@H]4F)ncnn3c2)cn1 [Example 2, ((1S,2R)-2-fluorocyclopropyl)(3-(6-(1-methyl-1H-pyrazol-4-yl)pyrrolo[2,1-f][1,2,4]triazin-4-yl)-3,8-diazabicyclo[3.2.1]octan-8-yl)methanone] | 4.7 | 324 | 292 | 820
6 | O=C([C@@H]1C[C@H]1F)N1C2CCC1CN(c1ncnn3cc(-c4ccnc(F)c4)cc13)C2 [Example 164] | 48.8 | 447 | 1300 | 7250
7 | O=C(C1C(F)(F)C12CCC2)N1C2CCC1CN(c1ncnn3cc(-c4cnn(C(F)F)c4)cc13)C2 (centres unmarked) [Example 7, (3-(6-(1-(difluoromethyl)-1H-pyrazol-4-yl)pyrrolo[2,1-f][1,2,4]triazin-4-yl)-3,8-diazabicyclo[3.2.1]octan-8-yl)(2,2-difluorospiro[2.3]hexan-1-yl)methanone] | 156 | 960 | 3960 | 6300
8 | O=C(C1CC1)N1C2CCC1CN(c1ncnn3cc(-c4cnn(C(F)(F)F)c4)cc13)C2 [Example 154] | 490 | 2950 | 10000 | 10000
9 | O=C([C@@H]1C[C@H]1F)N1C2CCC1CN(c1ccnn3cc(-c4ccnc(F)c4)cc13)C2 [Example 170] | 1.2 | 25 | 36 | 344
10 | Cn1cc(-c2nc3c(N4CC5CCC(C4)N5C(=O)[C@@H]4C[C@H]4F)ccnc3[nH]2)c(F)n1 [Example 216, (3-(2-(3-fluoro-1-methyl-1H-pyrazol-4-yl)-3H-imidazo[4,5-b]pyridin-7-yl)-3,8-diazabicyclo[3.2.1]octan-8-yl)((1S,2R)-2-fluorocyclopropyl)methanone] | 1.9 | 41 | 14 | 235
11 | Cn1cc(-c2cc3c(N4CC5CCC(C4)N5C(=O)C4CC4)ncnc3[nH]2)cn1 [Example 220, cyclopropyl(3-(6-(1-methyl-1H-pyrazol-4-yl)-7H-pyrrolo[2,3-d]pyrimidin-4-yl)-3,8-diazabicyclo[3.2.1]octan-8-yl)methanone] | 34 | 242 | 690 | 501
12 | O=C([C@H]1C[C@H]1F)N1C2CCC1CN(c1ncnn3cc(-c4cnn(C(F)F)c4)cc13)C2 (racemic) [Example 46, Rac-(3-(6-(1-(difluoromethyl)-1H-pyrazol-4-yl)pyrrolo[2,1-f][1,2,4]triazin-4-yl)-3,8-diazabicyclo[3.2.1]octan-8-yl)((1R,2R)-2-fluorocyclopropyl)methanone] | 668 | 1230 | 9740 | 6110
13 | CN(C)c1cc(-c2cc3c(N4CC5CCC(C4)N5C(=O)[C@@H]4C[C@H]4F)ccnn3c2)ccn1 [Example 128, (3-(6-(2-(dimethylamino)pyridin-4-yl)pyrrolo[1,2-b]pyridazin-4-yl)-3,8-diazabicyclo[3.2.1]octan-8-yl)((1S,2R)-2-fluorocyclopropyl)methanone] | 2.9 | 29 | 68 | 844
14 | Cn1cc(-c2cc3c(N4CC5CCC(C4)N5C(=O)[C@H]4C[C@H]4F)ncnn3c2)cn1 (single isomer, unassigned) [Example 79] | 626 | 9330 | ≥ 10000 | ≥ 10000
15 | Cc1c(-c2cc3c(N4CC5CCC(C4)N5C(=O)C4CC4)ncnn3c2)cnn1C [Example 168] | 317 | 5470 | 7850 | 7690
16 | CC(C(=O)N1C2CCC1CN(c1ncnn3cc(-c4cnn(C(F)F)c4)cc13)C2)C(F)(F)F (centres unmarked) [Example 31, 1-(3-(6-(1-(difluoromethyl)-1H-pyrazol-4-yl)pyrrolo[2,1-f][1,2,4]triazin-4-yl)-3,8-diazabicyclo[3.2.1]octan-8-yl)-3,3,3-trifluoro-2-methylpropan-1-one trifluoroacetate] | 193 | 1480 | 4460 | 6320
17 | O=C([C@H]1C[C@@H](C(F)(F)F)C1)N1C2CCC1CN(c1ncnn3cc(-c4cnn(C(F)F)c4)cc13)C2 [Example 29, (3-(6-(1-(difluoromethyl)-1H-pyrazol-4-yl)pyrrolo[2,1-f][1,2,4]triazin-4-yl)-3,8-diazabicyclo[3.2.1]octan-8-yl)((1s,3s)-3-(trifluoromethyl)cyclobutyl)methanone] | 238 | 774 | 4250 | 7470
18 | COc1cc(-c2cn3ncc(F)c(N4CC5CCC(C4)N5C(=O)[C@@H]4C[C@H]4F)c3n2)ccn1 (stereo in doubt) [Example 142, (3-(7-fluoro-2-(2-methoxypyridin-4-yl)imidazo[1,2-b]pyridazin-8-yl)-3,8-diazabicyclo[3.2.1]octan-8-yl)((1S,2R)-2-fluorocyclopropyl)methanone] | 19.6 | 46 | 270 | 514
19 | Cn1cc(-c2cc3c(N4CC5CCC(C4)N5C(=O)[C@@H]4C[C@H]4F)ncnn3c2)ccc1=O [Example 165] | 40.3 | 478 | 902 | 4140
20 | Cn1cc(-c2cc3c(N4CC5CCC(C4)N5C(=O)[C@H]4C[C@@H]4C#N)ncnn3c2)cn1 (racemic) [Example 66, Rac-(1S,2S)-2-(3-(6-(1-methyl-1H-pyrazol-4-yl)pyrrolo[2,1-f][1,2,4]triazin-4-yl)-3,8-diazabicyclo[3.2.1]octane-8-carbonyl)cyclopropane-1-carbonitrile] | 242 | 1510 | 3610 | 5540
